Legend:
Format in all cases: in vivo
[1] = system: indian mustard (Brassica juncea (L.) Czern. et Coss); experiment: Test Example 2: herbicidal effects (soil treatment); conditions: dosage 5 kg/a; soil treatment the day after seeding; judged after 21 days
From the text: (§1) Judgment Standard • 0: Growth inhibition rate; 0 to 10% • 1: Growth inhibition rate; 11 to 30% • 2: Growth inhibition rate; 31 to 50% • 3: Growth inhibition rate; 51 to 70% • 4: Growth inhibition rate; 71 to 90% • 5: Growth inhibition rate; 91 to 100%.
(§2) Upland soil was filled in 150 cm^2 pot, and seeds of barnyardgrass and indian mustard (Brassica juncea (L.) Czern. et Coss) were sowed, and grown in a greenhouse. At the next day of seeding, a predetermined chemical dosage of the wettable powder prepared in accordance with Preparation example 1 was diluted in water and applied to soil surface. After 21 days from the treatment, herbicidal effects were judged in accordance with the judgment standard of Test example 1, and the results were shown in Table 3.

[2] = system: barnyardgrass; experiment: as above; conditions: dosage 5 kg/a; soil treatment the day after seeding; judged after 21 days
From the text: as §1, §2

[3] = system: transplanted paddy-field rice; experiment: Test Example 1: crop injury against transplanted paddy-field rice; conditions: wettable powder applied 3 days after transplanting, judged after 25 days
Summary of the method: (§3)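 Greenhouse, flooded paddy soil; weeds from seed (top 1 cm), C. serotinus from germinated tubers, rice transplanted at 2.2-leaf stage. WP diluted in water, applied to pot day 3 post-transplant. Scored day 25 post-treatment, 0–5 inhibition scale.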

[4] = system: Scirpus joncoides; experiment: Test Example 1: herbicidal effects, paddy-field pot test; conditions: wettable powder applied 3 days after transplanting, judged after 25 days
Summary of the method: as §3

[5] = system: annual broad-leaved weeds (Lindernia spp., Rotala indica); experiment: as above; conditions: wettable powder applied 3 days after transplanting, judged after 25 days
Summary of the method: as §3

[6] = system: Cyperus serotinus; experiment: as above; conditions: wettable powder applied 3 days after transplanting, judged after 25 days
Summary of the method: as §3

[7] = system: barnyardgrass (Echinochloa oryzicola Vasing.); experiment: as above; conditions: wettable powder applied 3 days after transplanting, judged after 25 days
Summary of the method: as §3

## Cc1cccc(I)c1Oc1nnc(Cl)cc1O [Example 256]
[1]
  Herbicidal effects indian mustard: 5 (Growth inhibition rate; 91 to 100%)
[2]
  Herbicidal effects Barnyard-grass: 3 (Growth inhibition rate; 51 to 70%)
[3]; chemical dosage 10 g/a
  Crop injury against transplanted rice: 2 (Growth inhibition rate; 31 to 50%)
[3]; chemical dosage 20 g/a
  Crop injury against transplanted rice: 3 (Growth inhibition rate; 51 to 70%)
[4]; chemical dosage 10 g/a
  Herbicidal effects Scirpus joncoides: 5 (Growth inhibition rate; 91 to 100%)
[4]; chemical dosage 20 g/a
  Herbicidal effects Scirpus joncoides: 5 (Growth inhibition rate; 91 to 100%)
[5]; chemical dosage 10 g/a
  Herbicidal effects Broad leaf: 5 (Growth inhibition rate; 91 to 100%)
[5]; chemical dosage 20 g/a
  Herbicidal effects Broad leaf: 5 (Growth inhibition rate; 91 to 100%)
[6]; chemical dosage 10 g/a
  Herbicidal effects Cyperus serotinus: 5 (Growth inhibition rate; 91 to 100%)
[6]; chemical dosage 20 g/a
  Herbicidal effects Cyperus serotinus: 5 (Growth inhibition rate; 91 to 100%)
[7]; chemical dosage 10 g/a
  Herbicidal effects Barnyard grass: 3 (Growth inhibition rate; 51 to 70%)
[7]; chemical dosage 20 g/a
  Herbicidal effects Barnyard grass: 4 (Growth inhibition rate; 71 to 90%)

## Oc1cc(Cl)nnc1Oc1c(Br)ccc2ccoc12 [Example 309]
[1]
  Herbicidal effects indian mustard: 5 (Growth inhibition rate; 91 to 100%)
[2]
  Herbicidal effects Barnyard-grass: 5 (Growth inhibition rate; 91 to 100%)
[3]; chemical dosage 10 g/a
  Crop injury against transplanted rice: 2 (Growth inhibition rate; 31 to 50%)
[3]; chemical dosage 20 g/a
  Crop injury against transplanted rice: 5 (Growth inhibition rate; 91 to 100%)
[4]; chemical dosage 10 g/a
  Herbicidal effects Scirpus joncoides: 5 (Growth inhibition rate; 91 to 100%)
[4]; chemical dosage 20 g/a
  Herbicidal effects Scirpus joncoides: 5 (Growth inhibition rate; 91 to 100%)
[5]; chemical dosage 10 g/a
  Herbicidal effects Broad leaf: 5 (Growth inhibition rate; 91 to 100%)
[5]; chemical dosage 20 g/a
  Herbicidal effects Broad leaf: 5 (Growth inhibition rate; 91 to 100%)
[6]; chemical dosage 10 g/a
  Herbicidal effects Cyperus serotinus: 5 (Growth inhibition rate; 91 to 100%)
[6]; chemical dosage 20 g/a
  Herbicidal effects Cyperus serotinus: 5 (Growth inhibition rate; 91 to 100%)
[7]; chemical dosage 10 g/a
  Herbicidal effects Barnyard grass: 4 (Growth inhibition rate; 71 to 90%)
[7]; chemical dosage 20 g/a
  Herbicidal effects Barnyard grass: 5 (Growth inhibition rate; 91 to 100%)

## Cc1ccc2ccoc2c1Oc1nnc(Cl)cc1O [Example 310]
[1]
  Herbicidal effects indian mustard: 5 (Growth inhibition rate; 91 to 100%)
[2]
  Herbicidal effects Barnyard-grass: 5 (Growth inhibition rate; 91 to 100%)
[3]; chemical dosage 10 g/a
  Crop injury against transplanted rice: 0 (Growth inhibition rate; 0 to 10%)
[3]; chemical dosage 20 g/a
  Crop injury against transplanted rice: 0 (Growth inhibition rate; 0 to 10%)
[4]; chemical dosage 10 g/a
  Herbicidal effects Scirpus joncoides: 5 (Growth inhibition rate; 91 to 100%)
[4]; chemical dosage 20 g/a
  Herbicidal effects Scirpus joncoides: 5 (Growth inhibition rate; 91 to 100%)
[5]; chemical dosage 10 g/a
  Herbicidal effects Broad leaf: 5 (Growth inhibition rate; 91 to 100%)
[5]; chemical dosage 20 g/a
  Herbicidal effects Broad leaf: 5 (Growth inhibition rate; 91 to 100%)
[6]; chemical dosage 10 g/a
  Herbicidal effects Cyperus serotinus: 5 (Growth inhibition rate; 91 to 100%)
[6]; chemical dosage 20 g/a
  Herbicidal effects Cyperus serotinus: 5 (Growth inhibition rate; 91 to 100%)
[7]; chemical dosage 10 g/a
  Herbicidal effects Barnyard grass: 4 (Growth inhibition rate; 71 to 90%)
[7]; chemical dosage 20 g/a
  Herbicidal effects Barnyard grass: 5 (Growth inhibition rate; 91 to 100%)

Source: patent publication US7964531B2, “3-phenoxy-4-pyridazinol derivatives and herbicidal composition containing the same” (Mitsui Chemicals Agro, Inc., priority 2001, dated 2011)
